Patent US8410292B2, “Epoxy-guaiane derivatives and treatment of cancer” (The United States of America, as represented by the …, priority 2008, dated 2013)
Read-outs that look alike come from different tables or passages of the source.

Columns and labels:
ACHN = assay: NCI 60-cell line protocol, ACHN; type: cell-based, human; conditions: two days exposure, SRB endpoint
Protocol: (§1) Samples are tested in the standard National Cancer Institute 60-cell line protocol. First, they are tested against all 60 cell lines in a single final concentration of 10 micromolar. Then, they are separately tested in five 10-fold dilutions. The drug exposure is two days, with an SRB endpoint.

UO-31 [1] = assay: NCI 60-cell line protocol, UO-31; type: cell-based, human; conditions: two days exposure, SRB endpoint
Protocol: as §1

TK-10 = assay: NCI 60-cell line protocol, TK-10; type: cell-based, human; conditions: two days exposure, SRB endpoint
Protocol: as §1

SN12C = assay: NCI 60-cell line protocol, SN12C; type: cell-based, human; conditions: two days exposure, SRB endpoint
Protocol: as §1

SF-295 = assay: 2-day cell growth assay, SF-295; type: cell-based, human
Protocol: (§2) The primary endpoints of these assays are the formazan XTT, or alternatively, and in preference, the protein stain sulforhodamine B. All samples are tested in […] 10-fold dilutions with no drug and no-cell controls on each microtiter plate. IC50 values are calculated using SOFTMAX™ software as supplied by the manufacturer of the microplate reader.

renal cancer cell lines = assay: NCI 60-cell line protocol, summary over renal lines; type: cell-based, human
Protocol: as §1

CAKI-1 = assay: NCI 60-cell line protocol, CAKI-1; type: cell-based, human; conditions: two days exposure, SRB endpoint
Protocol: as §1

786-0 = assay: NCI 60-cell line protocol, 786-0; type: cell-based, human; conditions: two days exposure, SRB endpoint
Protocol: as §1

all 60 cell lines = assay: NCI 60-cell line protocol, all 60 lines; type: cell-based, human; conditions: mean over all 60 cell lines, read-out: All 60 mean GI-50
Protocol: as §1

RXF-393 = assay: NCI 60-cell line protocol, RXF-393; type: cell-based, human; conditions: two days exposure, SRB endpoint
Protocol: as §1

A498 = assay: NCI 60-cell line protocol, A498; type: cell-based, human; conditions: two days exposure, SRB endpoint
Protocol: as §1

UO-31 [2] = assay: 2-day cell growth assay, UO-31; type: cell-based, human
Protocol: as §2

[3] = system: renal cancer cell line A498; assay: 2-cell assay; type: cell-based
Protocol: A sample ([…]) of englerin B was stirred in pyridine (0.25 mL) and acetic anhydride (0.25 mL) overnight at room temperature. The solvents were evaporated under vacuum and the product extracted in dichloromethane. The crude product was purified on pTLC (Si gel 60 F254; 2% MeOH/DCM) to give englerin B monoacetate (2.0 mg, 95%).

[4] = Homo sapiens, SF-295, 48 h, insensitive CNS tumor line, read-out: SF-295 IC50
[5] = median over renal cell lines, read-out: Median GI50
[6] = Homo sapiens, UO-31, 48 h, 2-day cell growth assay, sensitive renal line; read-out: UO-31 IC50
[7] = ratio of IC50 SF-295 to IC50 UO-31
[8] = insensitive CNS tumor line, read-out: SF-295 IC50
[9] = geometric mean over renal cell lines, read-out: Geometric Mean GI50
[10] = mean over renal cell lines, read-out: Mean GI50
[11] = 2-day cell growth assay, sensitive renal line; read-out: UO-31 IC50

Compound	GI50 (ACHN) [nM]	GI50 (renal cancer cell lines; [5]) [nM]	GI50 (RXF-393) [nM]	GI50 (A498) [nM]	Selectivity SF-295/UO-31 (UO-31 [2]; [7])	GI50 (TK-10) [µM]	GI50 (SN12C) [nM]	IC50 (SF-295; [8]) [µM]	GI50 (renal cancer cell lines; [9]) [nM]	GI50 (renal cancer cell lines; [10]) [nM]	GI50 (CAKI-1) [nM]	GI50 (786-0) [µM]	GI50 (all 60 cell lines) [µM]	IC50 (UO-31 [2]; [11]) [nM]	GI50 (UO-31 [1]) [nM]	also measured
CC1CCC2C1C(OC(=O)C(Cl)C(Cl)c1ccccc1)C1(C(C)C)CC(OC(=O)CO)C2(C)O1 (single isomer, unassigned) [2′,3′-Dichlorodihydroenglerin A (epimer 1)]	140	680	930	140	75											GI50 (UO-31 [1]; Homo sapiens, UO-31, 48 h): 390 nM; GI50 (TK-10; Homo sapiens, TK-10, 48 h): 18 µM; GI50 (SN12C; Homo sapiens, SN12C, 48 h): 1000 nM; IC50 (SF-295; [4]): 90 µM; GI50 (renal cancer cell lines; Homo sapiens, 60 cell, geometric mean over renal cell lines, read-out: Geometric Mean GI50): 940 nM; GI50 (renal cancer cell lines; Homo sapiens, 60 cell, mean over renal cell lines, read-out: Mean GI50): 4090 nM; GI50 (CAKI-1; Homo sapiens, CAKI-1, 48 h): 420 nM; GI50 (786-0; Homo sapiens, 786-0, 48 h): 12 µM; GI50 (all 60 cell lines; Homo sapiens, 60 cell): 8.3 µM; IC50 (UO-31 [2]; [6]): 1200 nM
CC1CCC2C1C(OC(=O)C(Cl)C(Cl)c1ccccc1)C1(C(C)C)CC(OC(=O)CO)C2(C)O1 (single isomer, unassigned) [2′,3′-Dichlorodihydroenglerin A (epimer 2)]	320	320	320	49	80	25	1000	60	720	5550	320	12	11.7	750		
CC1CCC2C1C(OC(=O)C(Cl)C(O)c1ccccc1)C1(C(C)C)CC(OC(=O)CO)C2(C)O1 (single isomer, unassigned) [2′-Chloro,3′-hydroxydihydroenglerin (epimer 1), 2′-Chloro,3′-hydroxydihydroenglerin A (epimer 1)]	320	490		180	>104		630		700	2580	460	1.7			250	GI50 (TK-10; Homo sapiens, TK-10, 48 h): 17 µM; IC50 (SF-295; read-out: SF-295 IC50, insensitive CNS tumor line): > 100 µM; GI50 (all 60 cell lines; Homo sapiens, 60 cell): 6.9 µM; GI50 (RXF-393; Homo sapiens, RXF 393, 48 h): 510 nM; IC50 (UO-31 [2]; read-out: UO-31 IC50; 2-day cell growth assay, sensitive renal line): 960 nM
CC1CCC2C1C(OC(=O)C(Cl)C(O)c1ccccc1)C1(C(C)C)CC(OC(=O)CO)C2(C)O1 (single isomer, unassigned) [2′-Chloro,3′-hydroxydihydroenglerin (epimer 2), 2′-Chloro,3′-hydroxydihydroenglerin A (epimer 2)]	1380	3320	390	660	11	27	4700	92	3130	7070	9300	11	12	8700	1900	
CC1CCC2C1C(OC(=O)C(Cl)C(O)c1ccccc1)C1(C(C)C)CC(OC(=O)CO)C2(C)O1 (single isomer, unassigned) [2′-Chloro,3′-hydroxydihydroenglerin (epimer 3), 2′-Chloro,3′-hydroxydihydroenglerin A (epimer 3)]					102			42						410		
CC1CCC2C1C(OC(=O)C(Cl)C(O)c1ccccc1)C1(C(C)C)CC(OC(=O)CO)C2(C)O1 (single isomer, unassigned) [2′-Chloro,3′-hydroxydihydroenglerin (epimer 4), 2′-Chloro,3′-hydroxydihydroenglerin A (epimer 4)]					1.25			20						16000		
CCOC(c1ccccc1)C(Cl)C(=O)OC1C2C(C)CCC2C2(C)OC1(C(C)C)CC2OC(=O)CO (stereo not drawn) [2′-Chloro,3′-ethoxydihydroenglerin A]					1.94											IC50 (SF-295; [4]): 35 µM; IC50 (UO-31 [2]; [6]): 18000 nM
CC(C)[C@@]12C[C@@H](OC(=O)CO)[C@@](C)(O1)[C@@H]1CC[C@@H](C)[C@H]1[C@@H]2OC(=O)/C(Cl)=C/c1ccccc1 [2′-Chloroenglerin A]	41	40	19	28	78	21	560	72	210	3960	35	10	5.6	920	35	
englerin B monoacetate																selectivity against renal cancer cell line A498 [3]: ~400 fold
